From PubChem BioAssay (NCI)
Where “and” joins values, the source holds several entries; their conditions need not be identical. Equal values may be shown once.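 Compound exposure: 48 hours, 5 concentrations, 96-well plates. Here, GI50 denotes the concentration required for 50% inhibition of growth. TGI is the concentration that stops growth completely.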

What was measured:
Experiment in all cases: NCI anticancer screen, dose series, 48 h
A498 renal = tested on: A498 renal
HCT-15 colon = tested on: HCT-15 colon
HS 578T breast = tested on: HS 578T breast
MDA-MB-231 breast = tested on: MDA-MB-231 breast
RPMI-8226 leukemia = tested on: RPMI-8226 leukemia
SF-295 CNS = tested on: SF-295 CNS
SF-539 CNS = tested on: SF-539 CNS
SNB-75 CNS = tested on: SNB-75 CNS
UACC-62 melanoma = tested on: UACC-62 melanoma
UO-31 renal = tested on: UO-31 renal

## Cn1c(O)c(C(/C=C/c2ccccc2)=NCCN=C(/C=C/c2ccccc2)c2c(O)n(C)c(=O)n(C)c2=O)c(=O)n(C)c1=O
A498 renal
  GI50: 16.6 µM
  TGI: 40.7 µM
HCT-15 colon
  GI50: 14.5 µM
  TGI: > 50 µM
HS 578T breast
  GI50: 13.4 µM
  TGI: 34.7 µM
MDA-MB-231 breast
  GI50: 20.9 µM
  TGI: > 50 µM
RPMI-8226 leukemia
  GI50: 9.3 µM
  TGI: 30.4 µM
SF-295 CNS
  GI50: 16.2 µM
  TGI: > 50 µM
SF-539 CNS
  GI50: 13.7 µM
  TGI: 33.3 µM
SNB-75 CNS
  GI50: 17.6 µM
  TGI: > 50 µM
UACC-62 melanoma
  GI50: 19.2 µM
  TGI: > 50 µM
UO-31 renal
  GI50: 23.3 µM
  TGI: > 50 µM

## CCOC(=O)/C=C/c1cc2cc(-c3csc4ccccc34)ccc2[nH]1
A498 renal
  GI50: 12 µM
  TGI: 24.6 µM
HCT-15 colon
  GI50: 3.59 µM
  TGI: 15.8 µM
HS 578T breast
  GI50: 5.07 µM
  TGI: 22.2 µM
MDA-MB-231 breast
  GI50: 5.26 µM
  TGI: 18.2 µM
RPMI-8226 leukemia
  GI50: 2.87 µM
  TGI: 12.3 µM
SF-295 CNS
  GI50: 4.11 µM
  TGI: 16 µM
SF-539 CNS
  GI50: 14 µM
  TGI: 27.1 µM
SNB-75 CNS
  GI50: 6.14 µM
  TGI: 20.8 µM
UACC-62 melanoma
  GI50: 6.76 µM
  TGI: 19.6 µM
UO-31 renal
  GI50: 4.94 µM
  TGI: 19.1 µM

## O=C([O][Hg][CH2]C1COC([CH2][Hg][O]C(=O)c2ccccc2)CO1)c1ccccc1 (stereo not given)
A498 renal
  GI50: 18.8 µM
  TGI: 33.1 µM
HCT-15 colon
  GI50: 2.83 µM and 1.63 µM
  TGI: 5.67 µM and 3.15 µM
HS 578T breast
  GI50: 21.8 µM
  TGI: 82.6 µM
MDA-MB-231 breast
  GI50: 19.3 µM and 4.48 µM
  TGI: 41.9 µM and 16.4 µM
RPMI-8226 leukemia
  GI50: 1.97 µM and 2.14 µM
  TGI: 8.46 µM and 6.07 µM
SF-295 CNS
  GI50: 19.2 µM and 17.8 µM
  TGI: 41.7 µM and 31.6 µM
SF-539 CNS
  GI50: 15.8 µM and 14.4 µM
  TGI: 29.7 µM and 30.5 µM
SNB-75 CNS
  GI50: 17.6 µM and 4.32 µM
  TGI: 31.9 µM and 23.4 µM
UACC-62 melanoma
  GI50: 16.7 µM and 2.26 µM
  TGI: 30.4 µM and 5.09 µM
UO-31 renal
  GI50: 17.7 µM
  TGI: 31.5 µM

## CN(C)c1ncnc2c1nnn2C1OC(CO)C(O)C1O (stereo not given)
A498 renal
  GI50: 0.442 µM
  TGI: > 100 µM
HCT-15 colon
  GI50: 0.229 µM
  TGI: > 100 µM
HS 578T breast
  GI50: 0.632 µM
  TGI: > 100 µM
MDA-MB-231 breast
  GI50: 0.524 µM
  TGI: > 100 µM
RPMI-8226 leukemia
  GI50: 0.16 µM
  TGI: 1.1 µM
SF-295 CNS
  GI50: 0.221 µM
  TGI: > 58.3 µM
SF-539 CNS
  GI50: 0.503 µM
  TGI: > 90.6 µM
SNB-75 CNS
  GI50: 0.106 µM
  TGI: > 100 µM
UACC-62 melanoma
  GI50: 0.246 µM
  TGI: 1.55 µM
UO-31 renal
  GI50: 0.4 µM
  TGI: > 100 µM

## O=C1C2=Nc3ccccc3C(O)N2c2ccccc21 (stereo not given)
A498 renal
  TGI: 90.9 µM
HCT-15 colon
  TGI: > 100 µM
HS 578T breast
  TGI: > 100 µM
MDA-MB-231 breast
  TGI: > 100 µM
RPMI-8226 leukemia
  TGI: > 100 µM
SF-295 CNS
  TGI: > 100 µM
SF-539 CNS
  TGI: > 100 µM
SNB-75 CNS
  TGI: 90.4 µM
UACC-62 melanoma
  TGI: 12.9 µM
UO-31 renal
  TGI: > 100 µM

## CCOC(=O)c1c2c(n(Cc3ccccc3)c1C)-c1ccccc1C(=O)C2=O
A498 renal
  GI50: 24.6 µM
  TGI: 60 µM
HCT-15 colon
  GI50: 15.3 µM
  TGI: 30.8 µM
HS 578T breast
  GI50: 2.93 µM
  TGI: 12.4 µM
MDA-MB-231 breast
  GI50: 13.1 µM
  TGI: 27.9 µM
RPMI-8226 leukemia
  GI50: 13.2 µM
  TGI: 62.2 µM
SF-295 CNS
  GI50: 19.6 µM
  TGI: 48.4 µM
SF-539 CNS
  GI50: 18.7 µM
  TGI: 34.4 µM
SNB-75 CNS
  GI50: 10.7 µM
  TGI: 24.7 µM
UACC-62 melanoma
  GI50: 17.8 µM
  TGI: 34.2 µM
UO-31 renal
  GI50: 16.3 µM
  TGI: 31.6 µM

## CC1CCN(CCCCCOc2ccc3oc4cc(Cl)ccc4c(=O)c3c2)CC1
A498 renal
  GI50: 5.97 µM
  TGI: 12.7 µM
HCT-15 colon
  GI50: 1.32 µM
  TGI: 4.1 µM
HS 578T breast
  GI50: 7.32 µM
  TGI: 17.8 µM
MDA-MB-231 breast
  GI50: 7.6 µM
  TGI: 14.6 µM
RPMI-8226 leukemia
  GI50: 5.73 µM
  TGI: 15.9 µM
SF-295 CNS
  GI50: 6.8 µM
  TGI: 13.2 µM
SF-539 CNS
  GI50: 5.9 µM
  TGI: 12.3 µM
SNB-75 CNS
  GI50: 6.59 µM
  TGI: 13 µM
UACC-62 melanoma
  GI50: 2.24 µM
  TGI: 7.73 µM
UO-31 renal
  GI50: 5.7 µM
  TGI: 11.8 µM
